According to PubChem BioAssay AID248 (DTP/NCI, 2004):
“And” between values parts separate entries of the source, which are not always exact repeats. Equal values may be shown once. Inconclusive results and toxic doses are left out.

System: L1210 leukemia ip in BDF1 mice, survival T/C
Test: NCI In Vivo Anticancer Drug Screen. Data for tumor model L1210 Leukemia (intraperitoneal) in B6D2F1 (BDF1) mice
Details: endpoint: mean survival time, higher = longer survival
Summary of the method: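 Each compound was tested against a transplantable tumor grown in mice. The endpoint was survival, with treated animals benchmarked against vehicle controls as a simple ratio.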

[1] = dose: 100.0 mg/kg/injection, schedule: Q04DX003 (ip), vehicle: saline with Tween-80
[2] = dose: 100.0 mg/kg/injection, schedule: Q01DX009 (ip), vehicle: carboxymethylcellulose (CMC)
[3] = dose: 100.0 mg/kg/injection, schedule: Q04DX002 (ip), vehicle: carboxymethylcellulose (CMC)
[4] = dose: 200.0 mg/kg/injection, schedule: Q04DX002 (ip), vehicle: carboxymethylcellulose (CMC)
[5] = dose: 400.0 mg/kg/injection, schedule: Q04DX002 (ip), vehicle: carboxymethylcellulose (CMC)
[6] = dose: 100.0 mg/kg/injection, schedule: Q01DX009 (ip), vehicle: saline with Tween-80
[7] = dose: 200.0 mg/kg/injection, schedule: Q01DX009 (ip), vehicle: saline with Tween-80
[8] = dose: 400.0 mg/kg/injection, schedule: Q01DX009 (ip), vehicle: saline with Tween-80

**Q.** For C=CC(COC(C)=O)N1CC1 (centres undefined) (tested in a mixture with another compound), which T/C (dose: 30.0 mg/kg/injection, schedule: Q04DX003 (ip), vehicle: saline) is on record?
**A.** The T/C was 166 % of control.

**Q.** And the T/C (dose: 60.0 mg/kg/injection, schedule: Q04DX003 (ip), vehicle: saline)?
**A.** Its T/C is 107 % of control.

**Q.** For COC(=O)C(C)C(C)(O)C(C)(C)C (centres undefined), which T/C [1] is on record?
**A.** Its T/C is 101 % of control.

**Q.** Which results are given for OCCOC1CCCC=C1Cl (centres undefined)?
**A.** T/C (dose: 100.0 mg/kg/injection, schedule: Q01DX001 (ip), vehicle: acetone): 95 % of control; T/C (dose: 200.0 mg/kg/injection, schedule: Q01DX001 (ip), vehicle: acetone): 98 % of control; T/C (dose: 400.0 mg/kg/injection, schedule: Q01DX001 (ip), vehicle: acetone): 91 % of control

**Q.** Which results are given for Cc1nc2c(o1)CCCC2?
**A.** T/C (dose: 25.0 mg/kg/injection, schedule: Q01DX009 (ip), vehicle: carboxymethylcellulose (CMC)): 94 % of control and 107 % of control; T/C (dose: 50.0 mg/kg/injection, schedule: Q01DX009 (ip), vehicle: carboxymethylcellulose (CMC)): 97 % of control and 103 % of control; T/C [2]: 94 % of control and 105 % of control; T/C [3]: 103 % of control and 113 % of control; T/C [4]: 98 % of control and 100 % of control; T/C [5]: 88 % of control

**Q.** How did the T/C (dose: 100.0 mg/kg/injection, schedule: Q01DX001 (ip), vehicle: saline with Tween-80) turn out when O=C(COC(=O)c1ccccc1)NCCCCc1ccccc1 was run?
**A.** The T/C was 100 % of control.

**Q.** What about the T/C [6] of the same compound?
**A.** Its T/C is 105 % of control and 91 % of control.

**Q.** What about the T/C (dose: 100.0 mg/kg/injection, schedule: Q04DX002 (ip), vehicle: saline with Tween-80) of the same compound?
**A.** The T/C was 96 % of control.

**Q.** What about the T/C [1] of the same compound?
**A.** Its T/C is 94 % of control.

**Q.** What about the T/C (dose: 200.0 mg/kg/injection, schedule: Q01DX001 (ip), vehicle: saline with Tween-80) of the same compound?
**A.** The T/C was 89 % of control.

**Q.** What about the T/C [7] of the same compound?
**A.** Its T/C is 95 % of control and 100 % of control.

**Q.** And the T/C (dose: 200.0 mg/kg/injection, schedule: Q04DX002 (ip), vehicle: saline with Tween-80)?
**A.** Its T/C is 99 % of control and 91 % of control.

**Q.** What about the T/C (dose: 200.0 mg/kg/injection, schedule: Q04DX003 (ip), vehicle: saline with Tween-80) of the same compound?
**A.** The T/C was 92 % of control.

**Q.** What about the T/C [8] of the same compound?
**A.** Its T/C is 94 % of control and 95 % of control.

**Q.** What about the T/C (dose: 400.0 mg/kg/injection, schedule: Q04DX002 (ip), vehicle: saline with Tween-80) of the same compound?
**A.** The T/C was 93 % of control and 86 % of control.

**Q.** Which T/C (dose: 50.0 mg/kg/injection, schedule: Q04DX003 (ip), vehicle: saline) does the source give for NCCN1C(c2ccccc2)C1c1ccccc1 (centres undefined) here?
**A.** The T/C was 94 % of control.

**Q.** And the T/C (dose: 100.0 mg/kg/injection, schedule: Q04DX003 (ip), vehicle: saline)?
**A.** The T/C was 94 % of control and 105 % of control.

**Q.** And the T/C (dose: 200.0 mg/kg/injection, schedule: Q04DX003 (ip), vehicle: saline)?
**A.** The T/C was 103 % of control.

**Q.** What about the T/C (dose: 400.0 mg/kg/injection, schedule: Q04DX003 (ip), vehicle: saline) of the same compound?
**A.** Its T/C is 100 % of control.

**Q.** For Cc1cc(C)c(F)c(-c2c(N)c(C)cc(C)c2F)c1N, which T/C (dose: 50.0 mg/kg/injection, schedule: Q01DX001 (ip), vehicle: Klucel (hydroxypropylcellulose) (HPC)) is on record?
**A.** Its T/C is 106 % of control.

**Q.** What about the T/C (dose: 100.0 mg/kg/injection, schedule: Q01DX001 (ip), vehicle: Klucel (hydroxypropylcellulose) (HPC)) of the same compound?
**A.** The T/C was 101 % of control.

**Q.** What about the T/C (dose: 200.0 mg/kg/injection, schedule: Q01DX001 (ip), vehicle: Klucel (hydroxypropylcellulose) (HPC)) of the same compound?
**A.** Its T/C is 96 % of control.

**Q.** What does the source list for CSC1C(O)C(CO)OC1n1cnc2c(N)ncnc21 (centres undefined)?
**A.** T/C (dose: 100.0 mg/kg/injection, schedule: Q01DX005 (ip), vehicle: saline): 100 % of control; T/C (dose: 200.0 mg/kg/injection, schedule: Q01DX005 (ip), vehicle: saline): 106 % of control

**Q.** O=C(O)C1CCC(CC23CC4CC(CC(C4)C2)C3)CC1 (centres undefined) was tested. Which T/C (dose: 100.0 mg/kg/injection, schedule: Q01DX009 (ip), vehicle: Klucel (hydroxypropylcellulose) (HPC)) did it give?
**A.** Its T/C is 108 % of control.

**Q.** What about the T/C (dose: 100.0 mg/kg/injection, schedule: Q04DX003 (ip), vehicle: Klucel (hydroxypropylcellulose) (HPC)) of the same compound?
**A.** Its T/C is 103 % of control.

**Q.** What about the T/C (dose: 200.0 mg/kg/injection, schedule: Q01DX009 (ip), vehicle: Klucel (hydroxypropylcellulose) (HPC)) of the same compound?
**A.** Its T/C is 103 % of control.

**Q.** What about the T/C (dose: 200.0 mg/kg/injection, schedule: Q04DX003 (ip), vehicle: Klucel (hydroxypropylcellulose) (HPC)) of the same compound?
**A.** Its T/C is 105 % of control.

**Q.** And the T/C (dose: 400.0 mg/kg/injection, schedule: Q01DX009 (ip), vehicle: Klucel (hydroxypropylcellulose) (HPC))?
**A.** The T/C was 109 % of control.

**Q.** What about the T/C (dose: 400.0 mg/kg/injection, schedule: Q04DX003 (ip), vehicle: Klucel (hydroxypropylcellulose) (HPC)) of the same compound?
**A.** Its T/C is 101 % of control.

**Q.** Which results are given for CCCCCCCCCCCCCCCCCCNC(=O)Nc1cccc2ccccc12?
**A.** T/C [2]: 87 % of control; T/C (dose: 100.0 mg/kg/injection, schedule: Q04DX002 (ip), vehicle: Klucel (hydroxypropylcellulose) (HPC)): 101 % of control; T/C [3]: 87 % of control; T/C (dose: 100.0 mg/kg/injection, schedule: Q04DX003 (ip), vehicle: carboxymethylcellulose (CMC)): 106 % of control; T/C (dose: 200.0 mg/kg/injection, schedule: Q01DX009 (ip), vehicle: carboxymethylcellulose (CMC)): 87 % of control; T/C (dose: 200.0 mg/kg/injection, schedule: Q04DX002 (ip), vehicle: Klucel (hydroxypropylcellulose) (HPC)): 101 % of control; T/C [4]: 93 % of control and 95 % of control; T/C (dose: 200.0 mg/kg/injection, schedule: Q04DX003 (ip), vehicle: carboxymethylcellulose (CMC)): 96 % of control; T/C (dose: 400.0 mg/kg/injection, schedule: Q01DX009 (ip), vehicle: carboxymethylcellulose (CMC)): 94 % of control and 97 % of control; T/C [5]: 93 % of control and 88 % of control; T/C (dose: 400.0 mg/kg/injection, schedule: Q04DX003 (ip), vehicle: carboxymethylcellulose (CMC)): 90 % of control

**Q.** CCCCCC(O)C(CO)CCCC (centres undefined) was tested. Which T/C [6] did it give?
**A.** Its T/C is 100 % of control.

**Q.** What about the T/C [7] of the same compound?
**A.** The T/C was 95 % of control.

**Q.** What about the T/C [8] of the same compound?
**A.** The T/C was 94 % of control.

**Q.** Which T/C (dose: 12.5 mg/kg/injection, schedule: Q01DX009 (ip), vehicle: saline with Tween-80) does the source give for COc1cc2ccc(CCN)cc2cc1OC here?
**A.** The T/C was 101 % of control.

**Q.** What about the T/C (dose: 25.0 mg/kg/injection, schedule: Q01DX009 (ip), vehicle: saline with Tween-80) of the same compound?
**A.** The T/C was 101 % of control.

**Q.** What about the T/C (dose: 50.0 mg/kg/injection, schedule: Q01DX009 (ip), vehicle: saline with Tween-80) of the same compound?
**A.** The T/C was 105 % of control.
